Target: NACHT, LRR and PYD domains-containing protein 3 (Homo sapiens, UniProt Q96P20)
Assay: Evaluation of NLRP3 Inflammasome Inhibitory Activity Assay
Method: The NLRP3 inflammasome inhibitory activity of test compounds were evaluated CM the basis of the inhibitory activity of the IL-1β, production in THP1-Null cells (Product Number: thp-null, InvivoGen). […] A solution containing a test compound (20 μL/well) was added to test compound-setting wells. […] The supernatant of the culture was cryonically stored (set at −20° C.) until measurement of IL-1β.

Chain of NACHT, LRR and PYD domains-containing protein 3 (Q96P20 whole entry, the tested form may be a part): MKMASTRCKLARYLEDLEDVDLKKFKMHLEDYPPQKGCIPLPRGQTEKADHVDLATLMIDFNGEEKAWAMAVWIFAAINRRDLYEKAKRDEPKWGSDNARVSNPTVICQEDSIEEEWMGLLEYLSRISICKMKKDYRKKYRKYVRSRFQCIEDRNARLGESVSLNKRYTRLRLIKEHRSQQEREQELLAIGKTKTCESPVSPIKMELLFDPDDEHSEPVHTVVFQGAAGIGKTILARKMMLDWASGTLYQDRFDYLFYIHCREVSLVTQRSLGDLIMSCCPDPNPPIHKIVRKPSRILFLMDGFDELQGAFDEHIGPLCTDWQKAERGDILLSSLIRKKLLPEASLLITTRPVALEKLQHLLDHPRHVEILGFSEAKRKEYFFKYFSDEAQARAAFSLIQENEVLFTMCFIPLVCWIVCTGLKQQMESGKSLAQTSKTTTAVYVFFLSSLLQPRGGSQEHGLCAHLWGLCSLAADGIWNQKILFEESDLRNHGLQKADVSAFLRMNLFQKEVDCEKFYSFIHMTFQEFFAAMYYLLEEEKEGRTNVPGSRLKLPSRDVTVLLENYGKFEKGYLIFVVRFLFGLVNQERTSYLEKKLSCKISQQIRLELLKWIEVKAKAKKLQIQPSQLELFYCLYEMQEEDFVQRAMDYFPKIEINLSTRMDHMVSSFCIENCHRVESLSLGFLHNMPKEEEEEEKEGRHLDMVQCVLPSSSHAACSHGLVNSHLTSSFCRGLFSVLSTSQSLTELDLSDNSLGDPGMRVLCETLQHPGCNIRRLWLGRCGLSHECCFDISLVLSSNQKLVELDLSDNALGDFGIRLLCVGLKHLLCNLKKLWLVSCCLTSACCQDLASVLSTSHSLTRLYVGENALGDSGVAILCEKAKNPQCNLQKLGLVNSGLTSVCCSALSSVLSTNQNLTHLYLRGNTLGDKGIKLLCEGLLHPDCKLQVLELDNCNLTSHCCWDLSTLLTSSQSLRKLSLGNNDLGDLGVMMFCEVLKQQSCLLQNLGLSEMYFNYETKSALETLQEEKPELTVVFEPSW

For `Cc1cc(F)c(C(C)C)cc1Nc1nc(C(=O)NS(=O)(=O)N2CCOCC(O)C2)co1` (stereo not drawn) [US20230399319, Example 2-350], which IC50 is on record?
The IC50 was 15 nM.

How did the IC50 turn out when `Cc1cn(C(C)C)nc1Nc1nc(C(=O)NS(=O)(=O)N2CCOCC(F)(F)C2)co1` [US20230399319, Example 2-212] was run?
Its IC50 is 280 nM.

`Cc1cc(Nc2nc(C(=O)NS(=O)(=O)N3CCOC(COCC(C)(C)O)CC3)co2)c(C)cc1F` (stereo not drawn) [US20230399319, Example 2-353] was tested. Which IC50 did it give?
The IC50 was 16 nM.
